The results in this text go back to BindingDB's records for doi:10.1016/j.bmc.2013.02.042 (The City University of New York, 2013).

Structures are written as SMILES.

In the test the target is Sphingosine kinase 1 (Homo sapiens, UniProt Q9NYA1). As to the kind of experiment: Competitive inhibition of SK1 (unknown origin) in presence of ATP.
Sphingosine kinase 1, sequence (Q9NYA1 whole entry): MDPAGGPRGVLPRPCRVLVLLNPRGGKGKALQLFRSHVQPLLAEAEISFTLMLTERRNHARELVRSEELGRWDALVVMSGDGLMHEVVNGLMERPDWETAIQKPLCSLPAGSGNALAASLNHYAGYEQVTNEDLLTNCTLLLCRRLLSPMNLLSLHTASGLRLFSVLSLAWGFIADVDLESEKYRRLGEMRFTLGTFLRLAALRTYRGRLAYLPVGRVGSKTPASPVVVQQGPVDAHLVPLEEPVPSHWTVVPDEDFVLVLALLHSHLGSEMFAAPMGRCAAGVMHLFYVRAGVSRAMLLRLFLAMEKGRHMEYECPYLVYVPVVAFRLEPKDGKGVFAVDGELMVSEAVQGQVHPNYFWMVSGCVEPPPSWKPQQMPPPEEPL

As to `CCCCCCCCc1ccc(CC[C@](N)(/C=C/P(=O)(O)O)CO)cc1`, the Ki (commonly a dissociation constant, usually derived from enzyme kinetics or from competition with a known ligand) was determined as 10 µM.
